The target of assay [1] is Tyrosine-protein phosphatase non-receptor type 6 (Homo sapiens) (UniProt P29350). Briefly: Inhibition of SHP1 (unknown origin) at 100 uM relative to control.
In assay [2] the target is T1, Tyrosine-protein phosphatase non-receptor type 2 (Homo sapiens, UniProt P17706).
T1 sequence (P17706 whole entry): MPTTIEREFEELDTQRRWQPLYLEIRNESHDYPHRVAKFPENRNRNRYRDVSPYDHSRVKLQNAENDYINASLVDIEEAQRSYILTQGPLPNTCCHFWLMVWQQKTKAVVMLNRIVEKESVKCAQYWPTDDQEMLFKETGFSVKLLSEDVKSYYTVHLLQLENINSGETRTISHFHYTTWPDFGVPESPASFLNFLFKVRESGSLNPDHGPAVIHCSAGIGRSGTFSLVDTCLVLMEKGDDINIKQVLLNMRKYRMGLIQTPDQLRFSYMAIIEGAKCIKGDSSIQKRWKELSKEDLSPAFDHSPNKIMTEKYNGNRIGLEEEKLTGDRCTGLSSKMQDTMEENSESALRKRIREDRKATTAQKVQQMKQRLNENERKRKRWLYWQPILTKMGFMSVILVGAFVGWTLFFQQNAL
Briefly: Inhibition of TCPTP (unknown origin).

Assay [3] has as its target T2, Tyrosine-protein phosphatase non-receptor type 11 (Homo sapiens) (UniProt Q06124).
T2 sequence (whole entry): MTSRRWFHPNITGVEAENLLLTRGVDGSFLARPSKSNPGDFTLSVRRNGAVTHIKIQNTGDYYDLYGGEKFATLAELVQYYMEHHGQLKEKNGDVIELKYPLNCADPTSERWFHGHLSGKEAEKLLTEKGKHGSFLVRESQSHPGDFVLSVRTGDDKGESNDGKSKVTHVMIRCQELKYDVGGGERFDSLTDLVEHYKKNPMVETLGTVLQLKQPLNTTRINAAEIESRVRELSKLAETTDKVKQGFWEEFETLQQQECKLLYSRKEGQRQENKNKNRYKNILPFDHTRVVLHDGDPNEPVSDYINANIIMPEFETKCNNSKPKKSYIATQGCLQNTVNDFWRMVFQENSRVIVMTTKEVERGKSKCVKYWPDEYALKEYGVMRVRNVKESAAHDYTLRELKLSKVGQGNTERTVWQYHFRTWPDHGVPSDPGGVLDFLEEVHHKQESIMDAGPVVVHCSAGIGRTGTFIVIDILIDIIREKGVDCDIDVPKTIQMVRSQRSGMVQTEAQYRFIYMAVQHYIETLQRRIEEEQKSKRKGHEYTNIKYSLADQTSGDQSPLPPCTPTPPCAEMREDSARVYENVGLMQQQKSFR
Briefly: Inhibition of SHP2 (unknown origin) at 100 uM relative to control.

Assay [4] has as its target T3, Tyrosine-protein phosphatase non-receptor type 2 (Homo sapiens) (UniProt P17706).
T3 sequence (whole entry): T1 sequence (P17706 whole entry)
In words: Inhibition of TCPTP (unknown origin) at 100 uM relative to control.

The target of assay [5] is Dual specificity protein phosphatase 3 (Homo sapiens) (UniProt P51452). In words: Inhibition of VHR (unknown origin) at 100 uM relative to control.
Sequence of Dual specificity protein phosphatase 3 (Homo sapiens) (P51452 whole entry, looked up): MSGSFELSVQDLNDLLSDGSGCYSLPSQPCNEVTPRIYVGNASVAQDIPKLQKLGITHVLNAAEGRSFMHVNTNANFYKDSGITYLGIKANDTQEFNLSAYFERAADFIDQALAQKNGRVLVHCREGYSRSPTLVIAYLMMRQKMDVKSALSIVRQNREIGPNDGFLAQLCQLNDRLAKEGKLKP
Assay [6] has as its target T4, Tyrosine-protein phosphatase non-receptor type 1 (Homo sapiens) (UniProt P18031).
T4 sequence (whole entry): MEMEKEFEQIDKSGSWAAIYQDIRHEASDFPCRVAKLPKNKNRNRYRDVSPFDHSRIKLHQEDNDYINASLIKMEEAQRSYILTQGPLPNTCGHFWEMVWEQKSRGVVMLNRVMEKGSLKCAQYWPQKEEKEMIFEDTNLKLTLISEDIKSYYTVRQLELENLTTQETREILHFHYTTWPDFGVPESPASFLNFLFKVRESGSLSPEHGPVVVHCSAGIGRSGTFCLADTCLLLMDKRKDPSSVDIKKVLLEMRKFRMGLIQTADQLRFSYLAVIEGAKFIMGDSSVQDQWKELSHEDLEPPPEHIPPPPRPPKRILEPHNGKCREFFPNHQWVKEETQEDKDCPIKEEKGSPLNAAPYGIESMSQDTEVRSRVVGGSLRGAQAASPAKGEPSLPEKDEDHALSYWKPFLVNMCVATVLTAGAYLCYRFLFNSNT
Briefly: Inhibition of PTP1B (unknown origin) at 100 uM relative to control.

Assay [7] concerns the target T4, Tyrosine-protein phosphatase non-receptor type 1 (Homo sapiens). Briefly: (§1) Inhibition of PTP1B (unknown origin).
For assay [8], the target named is T5, Tyrosine-protein phosphatase non-receptor type 1 (Homo sapiens, UniProt P18031).
T5 sequence (P18031 whole entry): T4 sequence (whole entry)
The assay is described as §1.

Sequence of Tyrosine-protein phosphatase non-receptor type 6 (Homo sapiens) (P29350 whole entry): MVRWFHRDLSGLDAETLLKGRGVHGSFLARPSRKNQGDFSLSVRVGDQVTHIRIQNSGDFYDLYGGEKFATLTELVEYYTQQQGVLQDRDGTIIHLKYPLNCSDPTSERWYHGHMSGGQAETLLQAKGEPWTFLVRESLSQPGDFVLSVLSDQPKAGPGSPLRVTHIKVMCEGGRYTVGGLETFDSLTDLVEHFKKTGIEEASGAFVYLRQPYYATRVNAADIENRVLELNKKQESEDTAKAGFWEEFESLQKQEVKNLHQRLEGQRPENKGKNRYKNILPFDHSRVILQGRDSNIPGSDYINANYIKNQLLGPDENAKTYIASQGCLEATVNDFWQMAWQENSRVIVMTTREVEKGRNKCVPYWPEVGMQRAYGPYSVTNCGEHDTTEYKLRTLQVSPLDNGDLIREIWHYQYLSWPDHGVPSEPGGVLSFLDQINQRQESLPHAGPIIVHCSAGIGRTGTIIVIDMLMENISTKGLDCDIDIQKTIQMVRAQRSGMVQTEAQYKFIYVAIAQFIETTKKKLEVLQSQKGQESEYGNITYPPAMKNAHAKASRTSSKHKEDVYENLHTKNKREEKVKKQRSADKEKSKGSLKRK

Take `O=C(/C=C/c1ccc(O)c(O)c1)O[C@@H]1C[C@](O)(C(=O)O)C[C@@H](O)[C@H]1O` [CHLOROGENIC ACID]: the inhibition in assay [1] was 32%; in assay [3], 28.4%; in assay [4], 65.6%; in assay [5], 30.5%; in assay [6], 83.1%; in assay [7], “Dose-dependent effect”. The 50% inhibitory concentration (IC50) in assay [2] worked out at 77.9 µM.

With `O=C(/C=C/c1ccc(O)c(O)c1)O[C@H]1[C@H](O)C[C@](O)(C(=O)O)C[C@H]1OC(=O)/C=C/c1ccc(O)c(O)c1`, in assay [7], the inhibition entry was “Dose-dependent effect”. In assay [8], the midpoint of inhibition, the IC50, lay at 59.4 µM.

Take `O=C(/C=C/c1ccc(O)c(O)c1)O[C@@H]1C[C@](O)(C(=O)O)C[C@@H](OC(=O)/C=C/c2ccc(O)c(O)c2)[C@H]1O`: the inhibition result in assay [7] was “Dose-dependent effect”. In assay [8], the half-maximal inhibitory concentration (IC50) was found to be 37.9 µM.

Turning to `O=C(/C=C/c1ccc(O)c(O)c1)O[C@@H]1[C@H](O)C[C@@](O)(C(=O)O)C[C@H]1OC(=O)/C=C/c1ccc(O)c(O)c1`, in assay [7], the inhibition entry is “Dose-dependent effect”. In assay [8], this compound came in with an IC50 of 41.5 µM.

As for `COC(=O)[C@]1(O)C[C@@H](OC(=O)/C=C/c2ccc(O)c(O)c2)[C@@H](O)[C@H](OC(=O)/C=C/c2ccc(O)c(O)c2)C1`, the inhibition entry in assay [7] is “Dose-dependent effect”. Further, in assay [8], the concentration for half-maximal inhibition (IC50) stood at 42.7 µM.

Regarding `O=C(/C=C/c1ccc(O)c(O)c1)O[C@@H]1C[C@@](O)(C(=O)O)C[C@@H](O)[C@@H]1O`, the inhibition result in assay [7] is “Dose-dependent effect”.

`COC(=O)[C@]1(O)C[C@@H](O)[C@@H](OC(=O)/C=C/c2ccc(O)c(O)c2)[C@H](OC(=O)/C=C/c2ccc(O)c(O)c2)C1`: in assay [7], the inhibition result is “Dose-dependent effect”. The compound also returned an IC50 in assay [8] of 56 µM.

As to `O=C(/C=C/c1ccc(O)c(O)c1)O[C@H]1[C@H](O)C[C@](O)(C(=O)O)C[C@H]1O`, the inhibition result in assay [7] was “Dose-dependent effect”. Besides, the IC50 in assay [8] is 43.9 µM.

For the compound `O=C(/C=C/c1ccc(O)c(O)c1)O[C@@H]1C[C@](OC(=O)/C=C/c2ccc(O)c(O)c2)(C(=O)O)C[C@@H](O)[C@H]1O` [1,5-O-TRANS-DICAFFEOYLQUINIC ACID], the inhibition result in assay [7] is “Dose-dependent effect”. In assay [8], this compound came in with a 50% inhibitory concentration (IC50) of 35.4 µM.

`COc1cc(/C=C/C(=O)O[C@H]2[C@H](O)C[C@](O)(C(=O)O)C[C@H]2OC(=O)/C=C/c2ccc(O)c(OC)c2)ccc1O`: the inhibition result in assay [7] is “Dose-dependent effect”. In assay [8], this compound gave a 50% inhibitory concentration (IC50) of 67.1 µM.

For orientation: inhibition means the relative decrease from the control value, in per cent. Broadly, the IC50 is the concentration that gives 50% inhibition. Low values mean higher potency, high ones lower potency.
